Measured values: patent US12102667B2, “Polypeptides and antibiotics against gram-negative bacterium comprising the same” (priority 2021, dated 2024)
Read-outs that look alike come from different tables or passages of the source.

What was measured:
E. coli [1] = experiment: Checkerboard assay (MIC in combination, FIC index); assay type: cell-based, Escherichia coli; parameters: MIC of colistin: unit not given here; details: for MIC of colistin: colistin-resistant E. coli FORC81
Protocol: LNT113 was vertically diluted 2-fold and the antibiotic was serially diluted horizontally in a 96-well plate. Bacterium at a concentration of 10^6 CFU/ml were added to each well in a CAA medium. […] The fractional inhibitory concentration (FIC) for the LNT113 or antibiotic was calculated by dividing the MIC of two drugs by combining it with the MIC of each drug alone. […] The FICI was considered as a synergistic effect ≤0.5, an additive >0.5 ˜≤1, an independent effect (indifference)>1.0 ˜≤2, and an antagonistic effect (antagonism) >2.

E. coli [2] = details: cited from earlier work
E. coli [3] = experiment: Antibacterial activity analysis (colony count after 2 hours in buffer); assay type: cell-based, Escherichia coli; details: 2 μM
Protocol: (§1) The antibacterial activity of the purified protein was tested for E. coli and various K. pneumoniae strains. The bacterium were grown to an exponential phase (OD600=0.5) and harvested by centrifugation at 12,000×g for 3 minutes. Then, the pellets were washed with reaction buffer solution (20 mM Tris-HCl, pH 7.5) and diluted to about 10^6 cells/ml in the buffer solution. Then, 100 μl bacterial suspension was mixed with the purified endolysin of 100 μl in the reaction buffer solution and incubated at 37° C. for 2 hours. Finally, the mixture was diluted with PBS and loaded on an LB plate. After culturing at 37° C. overnight, the bacterial colonies were counted. All the analysis was performed in triplicate.
(§2) The same reaction was performed for the selected subject bacterium in 20 mM HEPES-NaOH, 150 mM NaCl [pH 7.4], and the unique antibacterial activity of Tris and dependence of endolysin for turgor pressure were excluded (FIG. 10a and FIG. 10b). […] The bacterial cells grown geometrically were cultured with 2 μM endolysin in low tonicity buffers (20 mM Tris-HCl, pH 7.5 or 20 mM HEPES, pH 7.5) or high tonicity buffers (buffer solution comprising 150 mM NaCl) at 37° C. for 2 hours. The cells treated with storage buffer solution (20 mM Tris-HCl, pH 7.5, 150 mM NaCl buffer solution (pH 7.5)) were used as a negative control group. The dotted line represents the detection limit (1 Log CFU/ml).
For this, endolysin EC340 at a concentration of 2 μM and each test bacterium were added to reaction buffer (20 mM Tris-Cl, pH 7.5) so that the final concentration was to be 200 μl, and were left at 37° C. for 2 hours. After 2 hours, the number of colonies of Acinetobacter baumannii, Pseudomonas aeruginosa and Escherichia coli was confirmed, and the result was shown in FIG. 3.

K. pneumoniae = experiment: as above; assay type: cell-based, Klebsiella pneumoniae; details: 2 μM
Protocol: as §1, §2

[4] = antibiotic combined with LNT113, E. coli ATCC 8739
[5] = antibiotic combined with LNT113, E. coli ATCC 51739
[6] = antibiotic combined with LNT113, E. coli CCARM 1A746
[7] = antibiotic combined with LNT113, E. coli FORC81
[8] = antibiotic combined with LNT113, E. coli UPEC 3150
[9] = antibiotic combined with LNT113, E. coli strains overall

C[C@@H](O)[C@H]1C(=O)N2C(C(=O)O)=C(S[C@@H]3CN[C@H](C(=O)N(C)C)C3)[C@H](C)[C@H]12 [Meropenem]
Fractional inhibitory concentration index (FICI) of LNT113 using various antibiotics (E. coli [1]; [4]): 0.63
Fractional inhibitory concentration index (FICI) of LNT113 using various antibiotics (E. coli [1]; [5]): 0.75
Fractional inhibitory concentration index (FICI) of LNT113 using various antibiotics (E. coli [1]; [6]): 1
Fractional inhibitory concentration index (FICI) of LNT113 using various antibiotics (E. coli [1]; [7]): 2
Fractional inhibitory concentration index (FICI) of LNT113 using various antibiotics (E. coli [1]; [8]): 1
combination effect with LNT113, in words (E. coli [1]; [9]): slight additive effect

CCn1cc(C(=O)O)c(=O)c2cc(F)c(N3CCNCC3)cc21 [Norfloxacin]
MIC of antibiotics (E. coli [2]; E. coli CCARM 1A746): ≥128 µg/mL
MIC of antibiotics (E. coli [2]; E. coli CCARM 1B684): 32 µg/mL

[H]/N=C(/N)N[C@H]1[C@H](O)[C@@H](O)[C@H](O[C@@H]2O[C@@H](C)[C@](O)(C=O)[C@H]2O[C@@H]2O[C@@H](CO)[C@H](O)[C@@H](O)[C@@H]2NC)[C@@H](N/C(N)=N\[H])[C@@H]1O [Streptomycin]
MIC of antibiotics (E. coli [2]; E. coli CCARM 1A746): ≥128 µg/mL
MIC of antibiotics (E. coli [2]; E. coli CCARM 1B684): ≥128 µg/mL

CN(C)c1cc(NC(=O)CNC(C)(C)C)c(O)c2c1C[C@H]1C[C@H]3[C@H](N(C)C)C(O)=C(C(N)=O)C(=O)[C@@]3(O)C(O)=C1C2=O [Tigecycline]
Fractional inhibitory concentration index (FICI) of LNT113 using various antibiotics (E. coli [1]; [4]): 2
Fractional inhibitory concentration index (FICI) of LNT113 using various antibiotics (E. coli [1]; [5]): 0.63
Fractional inhibitory concentration index (FICI) of LNT113 using various antibiotics (E. coli [1]; [6]): 2
Fractional inhibitory concentration index (FICI) of LNT113 using various antibiotics (E. coli [1]; [7]): 2
Fractional inhibitory concentration index (FICI) of LNT113 using various antibiotics (E. coli [1]; [8]): 0.63

Colistin
strains in which the synergistic effect with LNT113 was observed (E. coli [1]; 5 different E. coli strains): 4 strains among 5 strains
MIC of endolysin combined with colistin: Colistin (E. coli [1]; E. coli ATCC8738, EC340 0): 2 µg/mL
MIC of endolysin combined with colistin: Colistin (E. coli [1]; E. coli ATCC8738, EC340 16): 0.125 µg/mL
MIC of endolysin combined with colistin: Colistin (E. coli [1]; E. coli ATCC8738, EC340 32): 0.0625 µg/mL
MIC of endolysin combined with colistin: Colistin (E. coli [1]; E. coli ATCC8738, EC340 <2): 0.25 µg/mL
MIC of endolysin combined with colistin: Colistin (E. coli [1]; E. coli ATCC8738, mtEC340 0): 2 µg/mL
MIC of endolysin combined with colistin: Colistin (E. coli [1]; E. coli ATCC8738, mtEC340 16): 0.125 µg/mL
MIC of endolysin combined with colistin: Colistin (E. coli [1]; E. coli ATCC8738, mtEC340 32): 0.125 µg/mL
MIC of endolysin combined with colistin: Colistin (E. coli [1]; E. coli ATCC8738, mtEC340 <2): 0.25 µg/mL
combination effect with LNT113 (FICI class) (E. coli [1]; E. coli ATCC 8739): synergistic effect (a synergistic effect ≤0.5)
MIC of endolysin combined with colistin: Colistin (E. coli [1]; E. coli ATOCB739, LNT113 0): 2 µg/mL
MIC of endolysin combined with colistin: Colistin (E. coli [1]; E. coli ATOCB739, LNT113 1): 1 µg/mL
MIC of endolysin combined with colistin: Colistin (E. coli [1]; E. coli ATOCB739, LNT113 2): 0.5 µg/mL
MIC of endolysin combined with colistin: Colistin (E. coli [1]; E. coli ATOCB739, LNT113 4): 0.0625 µg/mL
combination effect with LNT113 (FICI class) (E. coli [1]; E. coli FORC81): synergistic effect (a synergistic effect ≤0.5)
MIC of endolysin combined with colistin: Colistin (E. coli [1]; E. coli FORC81, LNT113 0): 16 µg/mL
MIC of endolysin combined with colistin: Colistin (E. coli [1]; E. coli FORC81, LNT113 2): 4 µg/mL
MIC of endolysin combined with colistin: Colistin (E. coli [1]; E. coli FORC81, LNT113 4): 1 µg/mL
MIC of endolysin combined with colistin: Colistin (E. coli [1]; E. coli FORC81, LNT113 <0.25): 8 µg/mL
combination effect with LNT113 (FICI class) (E. coli [1]; E. coli UPEC 3150): synergistic effect (a synergistic effect ≤0.5)
MIC of endolysin combined with colistin: Colistin (E. coli [1]; E. coli UPEC3150, LNT113 0): 4 µg/mL
MIC of endolysin combined with colistin: Colistin (E. coli [1]; E. coli UPEC3150, LNT113 1): 2 µg/mL
MIC of endolysin combined with colistin: Colistin (E. coli [1]; E. coli UPEC3150, LNT113 2): 0.5 µg/mL
MIC of endolysin combined with colistin: Colistin (E. coli [1]; E. coli UPEC3150, LNT113 4): 0.0625 µg/mL
MIC of colistin in presence of endolysin EC340 or mtEC340 (E. coli [1]; Table 3): significantly reduced
Fractional inhibitory concentration index (FICI) of LNT113 using various antibiotics (E. coli [1]; [4]): 0.25
Fractional inhibitory concentration index (FICI) of LNT113 using various antibiotics (E. coli [1]; [5]): 0.5
Fractional inhibitory concentration index (FICI) of LNT113 using various antibiotics (E. coli [1]; [6]): 0.63
Fractional inhibitory concentration index (FICI) of LNT113 using various antibiotics (E. coli [1]; [7]): 0.5
Fractional inhibitory concentration index (FICI) of LNT113 using various antibiotics (E. coli [1]; [8]): 0.38
Fractional inhibitory concentration index (FICI) of LNT113 using various antibiotics (E. coli [1]; antibiotic combined with LNT113, E. coli UPEC 3150, listed as colistin): 0.375
combination effect with LNT113 (FICI class) (E. coli [1]; [9]): synergistic effect (a synergistic effect ≤0.5)
MIC of colistin (E. coli [1]; colistin alone): 16
MIC of colistin (E. coli [1]; in combination with LNT113 of 4 mg/ml): 1
decrease of bacterial cells (E. coli [3]; colistin-resistant E. coli FORC81, 2 hours): 1.2 log

B1: mtEC340: mutant EC340 with H39S, D43H, T45E, A73V, A81S, T101A and I113V (protein)
chain: VSRNISNNGIKFTAAFEGFRGTAYRATPNEKYLTIGYGSYGPHVEPGKTITPGQGLLLLNRDMAKAVAAVDAVAHHSLTQSQFDAVCDLVYNAGAGVIAAATGTGKALRSGDVATLRAKLALFINQNGKPLLGLRRRTAGRLALFDGKPWQEAEAIGRAVKG
modifications: synthetic_mtEC340
notes: mutant EC340 with H39S, D43H, T45E, A73V, A81S, T101A and I113V
MIC of endolysin combined with colistin: mtEC340 (E. coli [1]; E. coli ATCC8738, Colistin 0): >128 µg/mL
MIC of endolysin combined with colistin: mtEC340 (E. coli [1]; E. coli ATCC8738, Colistin 0.125 (row with mtEC340 16)): 16 µg/mL
MIC of endolysin combined with colistin: mtEC340 (E. coli [1]; E. coli ATCC8738, Colistin 0.125 (row with mtEC340 32)): 32 µg/mL
MIC of endolysin combined with colistin: mtEC340 (E. coli [1]; E. coli ATCC8738, Colistin 0.25): <2 µg/mL
antibacterial activity (number of bacterium) (K. pneumoniae; K. pneumoniae ATCC700603, KCTC2208, CCARM10143, F85, 2 hours, Tris-HCl pH 7.5): more excellent antibacterial activity
effect of adding NaCl on antibacterial activity (K. pneumoniae; K. pneumoniae KCTC 2208, Tris or Hepes buffer with 150 mM NaCl): almost inactivated
increase of antibacterial activity versus EC340 (K. pneumoniae; various K. pneumoniae strains, 2 hours): up to 1 log
antibacterial activity (number of bacterium) (E. coli [3]; E. coli ATCC8739, ATCC25922, CCARM1A746, CCARM1B684, 2 hours, Tris-HCl pH 7.5): more excellent antibacterial activity
effect of adding NaCl on antibacterial activity (E. coli [3]; E. coli ATCC 8739, Tris or Hepes buffer with 150 mM NaCl): almost inactivated
increase of antibacterial activity versus EC340 (E. coli [3]; various E. coli strains, 2 hours): up to 1 log
